Measured values taken from paper PMC12320299 (Chemical Science, 2025).

Assays:
[1] = Stability study by UV-Vis spectroscopy in PBS (1% DMSO); assay type: physicochemical; conditions: 40 μM 1a/2a, 80 μM 1b/2b
Procedure: Stability Study by UV-Vis Spectroscopy
All four compounds were freshly diluted in PBS (1% DMSO) from a DMSO stock solution at […]
80 µM. The stability of the compounds was monitored in a UV-Vis spectrophotometer (Perkin Elmer lambda 35 photometer) over 96 h by acquiring an UV-Vis spectrum every 30 mins. The percentage of the remaining intact compound was calculated by the ratio of the maximum absorbance of the tridentate complexes’ characteristic absorption band around 350– 370 nm after a given timepoint (A) compared to the one directly after dilution (A0). […]

[2] = tested on: SW480 cancer cells; test: Proteome profiling of compound-treated SW480 cancer cells (24 h, approx. IC50, CYT and NE fractions); assay type: cell-based, human
Procedure: To gain insight into potential modes of action and derive structure–activity relationships on a molecular level, proteomic profiling experiments were carried out based on label-free quantification (LFQ) by nano-liquid chromatography tandem mass spectrometry (nLC-MS/MS). […] Six replicates were used per condition. The perturbations were evaluated at subcellular resolution by fractionating cells into cytoplasmic (CYT) and nuclear (NE) protein fractions. Those have been separately proteolytically digested and analysed (Fig. 3A). The perturbations with the 3-Et-NQ and 3-Morph-NQ complexes were performed against their respective solvent-treated controls (CON), yielding a total of 72 samples. […] Statistical significance of individual protein regulations was calculated by multiple testing-corrected P-values based on 5% false discovery rate (FDR = 0.05 and S0 = 0.1).
The position of each group represents the summed fold-changes of the individual proteins in the group according to the subcellular space, i.e., CYT and NE fractions, while the size represents the number of proteins in each group. […]
Proteome profiling of compound-treated SW480 cancer cells […]
cells per well and left to adhere in complete cell culture medium. After 24 h, the medium was exchanged with fresh complete medium (DMSO mock control) or fresh medium containing […]
solution in DMSO, respectively) and incubated for another 24 h. Each condition was carried out in hexuplicates. The cells were processed according to a nucleocytoplasmic fractionation protocol as previously described.3 All steps were performed on ice. The medium was removed, and the cells were washed twice with 1×PBS (phosphate buffered saline, 3 mL). Then, PBS was thoroughly removed. Isotonic lysis buffer (10 mM HEPES, 10 mM NaCl, 3.5 mM MgCl2, 1 mM EGTA, 0.25 M Sucrose, 0.5% Triton X-100) containing protease inhibitors (1% PMSF, Sigma, and 1% protease and phosphatase inhibitor cocktail, Roche) was added to the flasks, the cells were scraped off and transferred into labelled 15 mL Falcon tubes. The cellular membrane was ruptured using shear stress by pressing the cell suspension through a syringe 9–12 times. Membrane rupture with intact nuclei was monitored under a microscope. After centrifugation (960 g, 5 min), the supernatant containing the cytoplasmic (CYT) proteins was transferred into new tubes containing ice-cold ethanol (1 : 5, HPLC grade) and precipitated […]
overnight at –20 °C. The pellet containing the nuclei was incubated with a hypertonic solution (10 mM Tris-HCl, 1 mM EDTA and 0.5 M NaCl) and subsequently diluted 1:10 with NP-40 buffer (10 mm Tris-HCl, 1 mm EDTA and 0.5% Triton X-100) containing protease inhibitors (1% PMSF, Sigma, and 1% protease and phosphatase inhibitor cocktail, Roche). After centrifugation (960 g, 5 min), the soluble nuclear (NE) proteins were also transferred into new tubes containing ice-cold ethanol (1 : 5, HPLC grade) and precipitated overnight at –20 °C.
The precipitated proteins were finally pelleted by centrifugation (5000 g, 30 min, 4 °C), the solution was decanted and the pellet dried under vacuum.

[3] = cytoplasmic fraction, FDR = 0.05, S0 = 0.1
[4] = nuclear fraction, FDR = 0.05, S0 = 0.1

CCC1=C2[O][Os][O]C2(n2cccn2)c2ccccc2C1=O.Cc1ccc(C(C)C)cc1 (stereo not drawn) [Compound 2a]
intact complex, UV-vis, 24 h ([1]; 24 h): 85%
intact complex, UV-vis, 96 h ([1]; 96 h): 61%
N° significantly regulated proteins, Total ([2]; CYT and NE): 968
GO BP Cellular response to heat, summed fold-changes ([2]; CYT fraction): 12.51
GO BP Cellular response to oxidative stress, summed fold-changes ([2]; CYT fraction): 2.82
GO BP DNA duplex unwinding, summed fold-changes ([2]; CYT fraction): -6.24
GO BP DNA replication, summed fold-changes ([2]; CYT fraction): -1.08
GO BP Double-strand break repair, summed fold-changes ([2]; CYT fraction): -1.23
GO BP Macroautophagy, summed fold-changes ([2]; CYT fraction): 10.51
GO BP Negative regulation of apoptotic process, summed fold-changes ([2]; CYT fraction): 3.78
GO BP Negative regulation of translation, summed fold-changes ([2]; CYT fraction): -16.92
GO BP Proteasome-mediated ubiquitin-dependent protein catabolic process, summed fold-changes ([2]; CYT fraction): 2.56
GO BP Protein K48-linked ubiquitination, summed fold-changes ([2]; CYT fraction): -5.49
GO BP Protein folding, summed fold-changes ([2]; CYT fraction): 12.25
GO BP Protein transport, summed fold-changes ([2]; CYT fraction): -1.68
GO BP Regulation of mRNA stability, summed fold-changes ([2]; CYT fraction): -7.54
GO BP Response to oxidative stress, summed fold-changes ([2]; CYT fraction): 3.27
GO BP Ribosomal small subunit biogenesis, summed fold-changes ([2]; CYT fraction): -13.81
GO BP Stress granule assembly, summed fold-changes ([2]; CYT fraction): -9.95
GO BP Translation, summed fold-changes ([2]; CYT fraction): -61.19
GO BP mRNA processing, summed fold-changes ([2]; CYT fraction): -0.15
GO BP rRNA processing, summed fold-changes ([2]; CYT fraction): -20.40
GO CC Azurophil granule lumen, summed fold-changes ([2]; CYT fraction): 3.77
GO CC Cell surface, summed fold-changes ([2]; CYT fraction): 0.48
GO CC Centrosome, summed fold-changes ([2]; CYT fraction): -15.78
GO CC Chromosome, telomeric region, summed fold-changes ([2]; CYT fraction): -11.84
GO CC Cytoplasmic stress granule, summed fold-changes ([2]; CYT fraction): -16.41
GO CC Cytosol, summed fold-changes ([2]; CYT fraction): -84.80
GO CC Endoplasmic reticulum, summed fold-changes ([2]; CYT fraction): -28.57
GO CC Extracellular exosome, summed fold-changes ([2]; CYT fraction): -26.34
GO CC Ficolin-1-rich granule lumen, summed fold-changes ([2]; CYT fraction): 8.74
GO CC Focal adhesion, summed fold-changes ([2]; CYT fraction): -17.07
GO CC Intracellular membrane-bounded organelle, summed fold-changes ([2]; CYT fraction): -3.80
GO CC Membrane, summed fold-changes ([2]; CYT fraction): -160.70
GO CC Mitochondrion, summed fold-changes ([2]; CYT fraction): -60.30
GO CC Nucleoplasm, summed fold-changes ([2]; CYT fraction): -4.45
GO CC Nucleus, summed fold-changes ([2]; CYT fraction): -0.98
GO CC Perinuclear region of cytoplasm, summed fold-changes ([2]; CYT fraction): -5.25
GO CC Proteasome complex, summed fold-changes ([2]; CYT fraction): 3.84
GO CC Protein-containing complex, summed fold-changes ([2]; CYT fraction): -12.02
GO CC Ribonucleoprotein complex, summed fold-changes ([2]; CYT fraction): -24.78
GO CC Spliceosomal complex, summed fold-changes ([2]; CYT fraction): -1.04
KEGG pathway Apoptosis, summed fold-changes ([2]; CYT fraction): 5.03
KEGG pathway Cellular senescence, summed fold-changes ([2]; CYT fraction): -0.24
KEGG pathway Ferroptosis, summed fold-changes ([2]; CYT fraction): 5.49
KEGG pathway Proteasome, summed fold-changes ([2]; CYT fraction): 4.95
KEGG pathway Protein processing in endoplasmic reticulum, summed fold-changes ([2]; CYT fraction): 25.89
KEGG pathway RNA degradation, summed fold-changes ([2]; CYT fraction): -8.81
KEGG pathway Ribosome, summed fold-changes ([2]; CYT fraction): -52.73
GO BP Cellular response to heat, summed fold-changes ([2]; NE fraction): 8.73
GO BP Cellular response to oxidative stress, summed fold-changes ([2]; NE fraction): -0.12
GO BP DNA duplex unwinding, summed fold-changes ([2]; NE fraction): -0.60
GO BP DNA replication, summed fold-changes ([2]; NE fraction): -7.21
GO BP Double-strand break repair, summed fold-changes ([2]; NE fraction): -0.87
GO BP Macroautophagy, summed fold-changes ([2]; NE fraction): 4.83
GO BP Negative regulation of apoptotic process, summed fold-changes ([2]; NE fraction): 2.62
GO BP Negative regulation of translation, summed fold-changes ([2]; NE fraction): 1.88
GO BP Proteasome-mediated ubiquitin-dependent protein catabolic process, summed fold-changes ([2]; NE fraction): 45.28
GO BP Protein K48-linked ubiquitination, summed fold-changes ([2]; NE fraction): -1.15
GO BP Protein folding, summed fold-changes ([2]; NE fraction): 2.10
GO BP Protein transport, summed fold-changes ([2]; NE fraction): 1.57
GO BP Regulation of mRNA stability, summed fold-changes ([2]; NE fraction): -0.24
GO BP Response to oxidative stress, summed fold-changes ([2]; NE fraction): -0.72
GO BP Ribosomal small subunit biogenesis, summed fold-changes ([2]; NE fraction): -1.30
GO BP Stress granule assembly, summed fold-changes ([2]; NE fraction): 3.01
GO BP Translation, summed fold-changes ([2]; NE fraction): -4.88
GO BP mRNA processing, summed fold-changes ([2]; NE fraction): 1.71
GO BP rRNA processing, summed fold-changes ([2]; NE fraction): -2.04
GO CC Azurophil granule lumen, summed fold-changes ([2]; NE fraction): -1.14
GO CC Cell surface, summed fold-changes ([2]; NE fraction): 0.76
GO CC Centrosome, summed fold-changes ([2]; NE fraction): 0.70
GO CC Chromosome, telomeric region, summed fold-changes ([2]; NE fraction): -12.89
GO CC Cytoplasmic stress granule, summed fold-changes ([2]; NE fraction): 4.82
GO CC Cytosol, summed fold-changes ([2]; NE fraction): 8.58
GO CC Endoplasmic reticulum, summed fold-changes ([2]; NE fraction): 8.32
GO CC Extracellular exosome, summed fold-changes ([2]; NE fraction): 5.34
GO CC Ficolin-1-rich granule lumen, summed fold-changes ([2]; NE fraction): 23.99
GO CC Focal adhesion, summed fold-changes ([2]; NE fraction): 9.01
GO CC Intracellular membrane-bounded organelle, summed fold-changes ([2]; NE fraction): 8.65
GO CC Membrane, summed fold-changes ([2]; NE fraction): -2.15
GO CC Mitochondrion, summed fold-changes ([2]; NE fraction): -7.86
GO CC Nucleoplasm, summed fold-changes ([2]; NE fraction): 29.04
GO CC Nucleus, summed fold-changes ([2]; NE fraction): 29.16
GO CC Perinuclear region of cytoplasm, summed fold-changes ([2]; NE fraction): 8.90
GO CC Proteasome complex, summed fold-changes ([2]; NE fraction): 37.70
GO CC Protein-containing complex, summed fold-changes ([2]; NE fraction): -3.65
GO CC Ribonucleoprotein complex, summed fold-changes ([2]; NE fraction): 3.30
GO CC Spliceosomal complex, summed fold-changes ([2]; NE fraction): -3.40
KEGG pathway Apoptosis, summed fold-changes ([2]; NE fraction): -0.73
KEGG pathway Cellular senescence, summed fold-changes ([2]; NE fraction): -3.09
KEGG pathway Ferroptosis, summed fold-changes ([2]; NE fraction): 1.80
KEGG pathway Proteasome, summed fold-changes ([2]; NE fraction): 35.64
KEGG pathway Protein processing in endoplasmic reticulum, summed fold-changes ([2]; NE fraction): 19.56
KEGG pathway RNA degradation, summed fold-changes ([2]; NE fraction): -5.97
KEGG pathway Ribosome, summed fold-changes ([2]; NE fraction): -4.75
N° proteins down-regulated, CYT [2, 3]: 429
N° proteins upregulated, CYT [2, 3]: 202
N° proteins down-regulated, NE [2, 4]: 170
N° proteins upregulated, NE [2, 4]: 167
